Tests used:
Format in all cases: cell-based
Pyricularia oryzae = experiment: microbe, parasite or virus in culture; conditions: 168 h, read-out: % control compared to the untreated check (radial growth)
Rhizoctonia solani = Rhizoctonia solani (rice sheath blight/potato black scurf) in vitro test, radial growth on Potato Dextrose Agar; conditions: 168 h, 300 ppm, seven days, 25° C., read-out: % control compared to the untreated check (radial growth)
Botrytis cinerea = Botrytis cinerea (gray mold) in vitro test, radial growth on Potato Dextrose Agar; conditions: 168 h, 300 ppm, seven days, 22° C., read-out: % (control) compared to the untreated check (radial growth)
Fusarium culmorum = Fusarium culmorum (foot rot of cereals) in vitro test, radial growth on Potato Dextrose Agar; conditions: for inhibition of growth at 300 ppm: Fusarium culmorum, 168 h, read-out: % control compared to the untreated check (radial growth)
Alternaria solani = Alternaria solani (early blight of tomato/potato) in vitro test, radial growth on Potato Dextrose Agar; conditions: 168 h, 300 ppm, seven days, 25° C., read-out: % control compared to the untreated check (radial growth)
Colletotrichum capsici = Colletotrichum capsici (anthracnose) in vitro test, radial growth on Potato Dextrose Agar; conditions: Colletotrichum truncatum, 168 h; 300 ppm; seven days, 25° C.; read-out: % control compared to the untreated check (radial growth)

| SMILES | inhibition of growth at 300 ppm (Pyricularia oryzae) | inhibition of growth at 300 ppm (Rhizoctonia solani) | inhibition of growth at 300 ppm (Botrytis cinerea) | inhibition of growth at 300 ppm (Fusarium culmorum) | inhibition of growth at 300 ppm (Alternaria solani) | inhibition of growth at 300 ppm (Colletotrichum capsici) | % control compared to the untreated check (radial growth) (Fusarium culmorum; 300 ppm, seven days, 25° C.) |
| --- | --- | --- | --- | --- | --- | --- | --- |
| CCN(C)C=Nc1cc(C)c(C(C#N)c2ccc(F)cc2)cc1Cl (stereo not drawn) [Compound 189, N′-(2-chloro-4-(cyano(4-fluorophenyl)methyl)-5-methylphenyl)-N-ethyl-N-methylformimidamide] | > 75% | > 80% | > 80% | 75% | – | – | – |
| CCN(C)C=Nc1cc(F)c(Cc2ccccc2Cl)cc1F [Compound 253, N′-(4-(2-chlorobenzyl)-2,5-difluorophenyl)-N-ethyl-N-methylformimidamide] | > 75% | > 80% | > 80% | 75% | > 75% | – | – |
| CCN(C)C=Nc1cc(C)c(Cc2ccc(F)cc2Cl)cc1Cl [Compound 99, N′-(2-chloro-4-(2-chloro-4-fluorobenzyl)-5-methylphenyl)-N-ethyl-N-methylformimidamide] | > 75% | > 80% | > 80% | 75% | > 75% | > 80% | – |
| CCN(C)C=Nc1cc(C)c(Cc2ccc(F)c(C)c2)cc1Cl [Compound 119, N′-(2-chloro-4-(4-fluoro-3-methylbenzyl)-5-methylphenyl)-N-ethyl-N-methylformimidamide] | > 75% | > 80% | > 80% | 75% | > 75% | > 80% | – |
| CCN(C)C=Nc1cc(C)c(Cc2c(Cl)cccc2Cl)cc1C [Compound 153, N′-(4-(2,6-dichlorobenzyl)-2,5-dimethylphenyl)-N-ethyl-N-methylformimidamide] | > 75% | > 80% | > 80% | 75% | > 75% | > 80% | – |
| CCN(C)C=Nc1cc(C)c(Cc2cc(F)cc(OC)c2)cc1C [Compound 156, N-ethyl-N′-(4-(3-fluoro-5-methoxybenzyl)-2,5-dimethylphenyl)-N-methylformimidamide] | > 75% | > 80% | > 80% | 75% | > 75% | > 80% | – |
| CCN(C)C=Nc1cc(C)c(Cc2cc(F)cc(F)c2)cc1C [Compound 132, N′-(4-(3,5-difluorobenzyl)-2,5-dimethylphenyl)-N-ethyl-N-methylformimidamide] | > 75% | > 80% | > 80% | 75% | > 75% | > 80% | – |
| CCN(C)C=Nc1cc(C)c(Cc2ccc(C(F)(F)F)c(F)c2)cc1Cl [Compound 137, N′-(2-chloro-4-(3-fluoro-4-(trifluoromethyl)benzyl)-5-methylphenyl)-N-ethyl-N-methylformimidamide] | > 75% | > 80% | > 80% | 75% | > 75% | > 80% | – |
| CCN(C)C=Nc1cc(C)c(Cc2cccc(C(F)(F)F)c2)cc1Cl [Compound 80, N′-(2-chloro-5-methyl-4-(3-(trifluoromethyl)benzyl)phenyl)-N-ethyl-N-methylformimidamide] | > 75% | > 80% | > 80% | 75% | > 75% | > 80% | – |
| CCN(C)C=Nc1cc(Cl)c(C(C)(C(=O)N(C)C)c2cccc(F)c2)cc1C (stereo not drawn) [Compound 239, 2-(2-chloro-4-(((ethyl(methyl)amino)methylene)amino)-5-methylphenyl)-2-(3-fluorophenyl)-N,N-dimethylpropanamide] | > 75% | > 80% | > 80% | 75% | > 75% | > 80% | – |
| CCN(C)C=Nc1cc(C)c(Cc2ccc(Cl)cc2)cc1Cl [Compound 79, N′-(2-chloro-4-(4-chlorobenzyl)-5-methylphenyl)-N-ethyl-N-methylformimidamide] | > 75% | > 80% | > 80% | 75% | > 75% | > 80% | – |
| CCN(C)C=Nc1cc(C)c(Cc2cccc(Cl)c2)cc1Cl [Compound 78, N′-(2-chloro-4-(3-chlorobenzyl)-5-methylphenyl)-N-ethyl-N-methylformimidamide] | > 75% | > 80% | > 80% | 75% | > 75% | > 80% | – |
| Cc1cc(N=CN(C)CC2CC2)c(C)cc1Cc1ccccc1F [Compound 87, N-(cyclopropylmethyl)-N-(4-(2-fluorobenzyl)-2,5-dimethylphenyl)-N-methylformimidamide] | – | – | – | – | – | – | 75% |
| CCN(C)C=Nc1cc(C)c(Cc2c(F)cccc2Cl)cc1C [Compound 155, N′-(4-(2-chloro-6-fluorobenzyl)-2,5-dimethylphenyl)-N-ethyl-N-methylformimidamide] | > 75% | > 80% | > 80% | 75% | > 75% | > 80% | – |
| CCN(C)C=Nc1cc(C)c(Cc2ccc(F)c(C(F)(F)F)c2)cc1Cl [Compound 181, N′-(2-chloro-4-(4-fluoro-3-(trifluoromethyl)benzyl)-5-methylphenyl)-N-ethyl-N-methylformimidamide] | > 75% | > 80% | > 80% | 75% | > 75% | – | – |
| CCN(C)C=Nc1cc(C)c(Cc2ccc(OC(F)(F)F)cc2)cc1Cl [Compound 121, N′-(2-chloro-5-methyl-4-(4-(trifluoromethoxy)benzyl)phenyl)-N-ethyl-N-methylformimidamide] | > 75% | > 80% | > 80% | 75% | > 75% | > 80% | – |
| CCN(C)C=Nc1cc(F)c(Cc2cccc(F)c2)cc1F [Compound 269, N′-(2,5-difluoro-4-(3-fluorobenzyl)phenyl)-N-ethyl-N-methylformimidamide] | > 75% | > 80% | > 80% | 75% | > 75% | > 80% | – |

Source: patent publication US11155517B2, “4-substituted phenylamine derivatives and their use to protect crops by fighting undesired phytopathogenic micoorganisms” (PI INDUSTRIES LTD., priority 2016, dated 2021)
